Laboratory results as given in ChEMBL document CHEMBL5352494, “Hybrid molecules combining GABA-A and serotonin 5-HT6 receptors activity designed to tackle neuroinflammation associated with depression” (Eur J Med Chem, 2023).

Assays:
in vitro [1] = conditions: rat, liver microsomes
in vitro [2] = conditions: human, Caco-2

| half-life at 0.1 µM (in vitro [1]) | Structure (SMILES) | Papp A→B at 10 µM (in vitro [2]) |
| --- | --- | --- |
| > 60 min | CC(C)NCC(O)COc1cccc2ccccc12 (configuration not stated) [PROPRANOLOL] | – |
| – | CNC(=C[N+](=O)[O-])NCCSCc1ccc(CN(C)C)o1 [RANITIDINE] | 0.3 ×10⁻⁶ cm/s |
